We go through 7 compounds from article PMC9539280 (Advanced Science, 2022).

Structures can show the parent of a compound that is named as a salt. Where two headings read alike, the source gives them in different places.

For series [1], the system named is hEHTs (human engineered heart tissues).
Series [2] concerns hCMs.
In series [3] the test system is hCMs. The source holds these as a separate data set.
Series [4] concerns hCMs. The source holds these as a separate data set.
In series [5] the test system is hEHTs (human engineered heart tissues). The source holds these as a separate data set.
The test system of series [6] is hCMs (human pluripotent stem cell-derived cardiomyocytes). In words: Cytotoxicity assay, calcein-AM/PI double staining, relative cell viability. Format: cell-based. The settings on record: for cell viability of hCMs: 6 days, escalating concentrations (0.03-3 or 1-30 × 10^−6 M), calcein-AM/PI; for effects on normal hCMs (viability, apoptosis, sarcomere organization): absence of remdesivir, 3 μM and 10 μM. The procedure:
(§1) hCMs were dissociated with 0.25% trypsin/EDTA (25200072, Gibco) and then seeded into 384‐well plates at the density of 8 × 10^3 cells per well. 24 h after seeding, cells were exposed to the drugs at the indicated concentrations for 6 days. Culture media were fully changed every 3 days with new drug supplementation. After drug treatment, cells were stained with calcein‐AM/PI/Hoechst for 20 min using calcein‐AM/PI double staining kit (C542, DOJINDO). Images were captured by the Operetta CLS High‐Content Analysis System (PerkinElmer). Number of live cells (calcein‐AM+/PI‐) and dead cells (PI+) was quantified by using the Harmony 4.9 software (PerkinElmer). Number of live cells was used to calculate the “relative cell viability” as follows (1) relarivecellviability=numberoflivecellsineachtreatment/numberoflivecellsinDMSOcontrol×100%

For series [7], the system named is hCMs. The source holds these as a separate data set.
For series [8] the following is noted: cited from earlier work.
Series [9] concerns hCMs. In words: TUNEL apoptosis assay in hCMs. The settings on record: 6 days.
The subject of series [10] is hCMs. As to the kind of experiment: Spontaneous calcium transient measurement (Fluo-4) in hCMs. To be noted: 6 days; for calcium transient amplitude: escalating concentrations (1-20 μM).
The subject of series [11] is hCMs. In words: Sarcomere organization by α-actinin immunostaining in hCMs. To be noted: 6 days.
The test system of series [12] is hEHTs (human engineered heart tissues). As to the kind of experiment: TUNEL/α-actinin staining of hEHTs. To be noted: for toxicity to hEHTs: 2 × 10^−6 and 5 × 10^−6 M for 3 days.
Series [13] has as its system hCMs. In words: Calcium measurement in hCMs under electrical field stimulation.
Series [14] deals with hEHTs (human engineered heart tissues). As to the kind of experiment: Contractile force / spontaneous contractility of hEHTs.
The conditions of series [15]: reported clinical cardiotoxic effects of the repurposed drug; 10a,b, 10c, 41, 42; cited from earlier work.
Series [16] has as its system hCMs. Set-up: method as in PMID 34142159. To be noted: ref 25a; cited from earlier work.
The subject of series [17] is hCMs. In words: Mitochondrial (MitoSox) and intracellular (DCFH-DA) ROS measurement in hCMs. It counts as cell-based, human. The settings on record: remdesivir 10 μM, 4 or 6 days. The procedure: Mitochondrial‐associated ROS and intracellular ROS were measured using MitoSox Red Mitochondrial Superoxide Indicator (M‐36008, ThermoFisher) and DCFH‐DA (S0033S, Beyotime), respectively. For mitochondrial‐associated ROS measurement, hCMs were loaded with 4 × 10^−6 M MitoSox dye in Hanks' balanced salt solution buffer for 15 min at 37 °C and washed twice with PBS. The MitoSox fluorescence (excitation/emission = 510/580 nm) was detected and quantified by the Operetta CLS High‐Content Analysis System. For intracellular ROS measurement, hCMs were loaded with 10 × 10^−6 M DCFH‐DA in serum‐free medium for 20 min at 37 °C and washed twice with serum‐free medium. The DCFH fluorescence (excitation/emission = 488/525 nm) was detected and quantified by the Operetta CLS High‐Content Analysis System.

In another series the test system is remdesivir-treated hCMs. In words: High-throughput screening and validation of compounds protective against remdesivir (cell viability). It counts as cell-based, human. The settings on record: for remdesivir-induced cardiotoxicity (cell viability), protection: 10 × 10^−6 or 25 × 10^−6 M remdesivir for 6 days with co-administration. Here is the method: as §1
hCMs were seeded into 384‐well plates at a density of 8 × 10^3 cells per well. 24 h after seeding, the cells were treated with either 25 × 10^−6 M remdesivir alone or remdesivir with the chemicals from a Bioactive Compound Library (Topscience) consisted of 2464 natural compounds and US FDA‐approved drugs for 6 days. Chemicals at the concentration of 5 × 10^−6 M were transferred to the plates by using a Tecan Freedom EVO 150 liquid handler.

The subject of series [18] is mitochondrial permeability transition pore. To be noted: not told; cited from earlier work.
Where [19] appears, read: spontaneous, escalating concentrations (lopinavir: high dosage only).
The mark [20] stands for this setting: 2 × 10^−6 M remdesivir and 2 × 10^−6 M astaxanthin for 2 days.

Regarding `Cc1cccc(/C=N/Nc2cc(N3CCOCC3)nc(OCCc3ccccn3)n2)c1` [Apilimod, apilimod], the “toxicity to hEHTs” value in series [1] was “toxic to hEHTs”. For the same compound, the “sarcomere organization of hCMs” value in the series with hCMs [2] is listed as “sarcomeric disarray”. In the series with hCMs [3], the calcium transient amplitude result is “without apparently affecting”, the “time to 50% decay of the calcium transients” value is recorded as “increased” and the “time to peak of the calcium transients” value was “increased”. In addition, the “apoptosis of hCMs (TUNEL)” value with hCMs [4] is recorded as “increased apoptosis”. For the same compound, in series [5], the “abnormal beating of hEHTs (spontaneous contractility)” value is reported as “more severe”, the “contractile force of hEHTs” value is “much lower”, the “hEHT function (tissue level cardiotoxicity)” value is recorded as “weaken hEHT function” and the “passive force of hEHTs” value was “increases of the passive force”. The “cell viability of hCMs” value in series [6] is reported as “dose‐dependent decrease”. Besides, in the series with hCMs [7], the “intracellular calcium handling properties of hCMs” value is on record as “impair”. In addition, in [8] (in vivo), the Cmax is 0.27 µM.

As for `Cc1cccc(C)c1OCC(=O)N[C@@H](Cc1ccccc1)[C@@H](O)C[C@H](Cc1ccccc1)NC(=O)[C@H](C(C)C)N1CCCNC1=O` [Lopinavir, lopinavir], the “apoptosis of hCMs (TUNEL)” value in the series with hCMs [9] is reported as “increased apoptosis”. For the same compound, the calcium transient amplitude entry in the series on hCMs [10] (spontaneous) is recorded as “tended to decrease”. Moreover, in the series with hCMs [10] (setting [19]), the “time to 50% decay of the calcium transients” value is listed as “significantly increased” and the “time to peak of the calcium transients” value is given as “significantly increased”. Moreover, the “sarcomere organization of hCMs” value in the series on hCMs [11] is reported as “sarcomeric disarray”. The “cell viability of hCMs” value in series [6] was “dose‐dependent decrease”. The Cmax in [8] (in vivo) is 42.1 µM. Further, the “toxicity to hEHTs” value in series [12] is given as “toxic to hEHTs”. In addition, in the series with hCMs [13], the “intracellular calcium handling properties of hCMs” value is listed as “impair”.

As for `CCC(CC)COC(=O)[C@H](C)N[P@](=O)(OC[C@H]1O[C@@](C#N)(c2ccc3c(N)ncnn23)[C@H](O)[C@@H]1O)Oc1ccccc1` [Remdesivir, remdesivir], the “hEHT function (tissue level cardiotoxicity)” value in series [14] is listed as “weaken hEHT function”. Besides, the “abnormal beating of hEHTs (spontaneous contractility)” value in [14] (2 × 10^−6 or 5 × 10^−6 M for 3 days) was “more severe”. Also, the “passive force of hEHTs” value in series [14] (3 days) was “increases of the passive force”. Also, in series [14] (progressive stretch 0-12%, 3 days), the “contractile force of hEHTs” value is listed as “much lower”. Also, the “apoptosis of hCMs (TUNEL)” value in the series on hCMs [9] is reported as “increased apoptosis”. Further, in the series with hCMs [11], the “sarcomere organization of hCMs” value is “sarcomeric disarray”. In addition, in series [6], the “cell viability of hCMs” value is recorded as “dose‐dependent decrease”. Moreover, in [15], the Cardiotoxic effects entry is “Cardiac arrest,^[ [10a,b] ^] heart failures,^[ [10c] ^] arrhythmias^[ [10c] ^]”. The Cmax in [8] (read-out: C max, maximum plasma concentration, ref U.S. FDA or published literature) was 9.03 µM. Moreover, in the series on hCMs [16], the “ROS levels in hCMs” value is “does not alter”, the mitochondrial fragmentation entry is on record as “induce mitochondrial fragmentation” and the mitochondrial respiration result is given as “suppress mitochondrial respiration”. Also, the “toxicity to hEHTs” value in [12] is on record as “toxic to hEHTs”. In addition, the “intracellular calcium handling properties of hCMs” value with hCMs [13] is listed as “impair”. In addition, the “ROS level in hCMs” value in the series with hCMs [17] (MitoSox and DCFH-DA) is on record as “did not alter”.

For the compound `CC(C)c1nc(CN(C)C(=O)N[C@H](C(=O)N[C@@H](Cc2ccccc2)C[C@H](O)[C@H](Cc2ccccc2)NC(=O)OCc2cncs2)C(C)C)cs1` [Ritonavir, ritonavir], the “apoptosis of hCMs (TUNEL)” value in the series with hCMs [9] is “increased apoptosis”. For the same compound, in the series on hCMs [10] (spontaneous), the calcium transient amplitude result is recorded as “tended to decrease”. In the series on hCMs [11], the “sarcomere organization of hCMs” value is recorded as “sarcomeric disarray”. The Cardiotoxic effects result in [15] was “QTc prolongation and arrhythmias^[ [9] ^]”. In addition, the Cmax in [8] (in vivo) is 1.32 µM. Also, the “toxicity to hEHTs” value in series [12] is given as “toxic to hEHTs”. Also, the “intracellular calcium handling properties of hCMs” value in the series on hCMs [13] is “impair”.

For the compound `CC1=C(/C=C/C(C)=C/C=C/C(C)=C/C=C/C=C(C)/C=C/C=C(C)/C=C/C2=C(C)C(=O)[C@@H](O)CC2(C)C)C(C)(C)C[C@H](O)C1=O` [astaxanthin], in [14] (setting [20]), the “decrease in contractile force induced by remdesivir in hEHTs” value is listed as “significantly resolved” and the “proportion of abnormal beating induced by remdesivir in hEHTs” value is recorded as “significantly resolved”. Besides, the “remdesivir-induced alterations in calcium transient duration” value in the series with hCMs [10] (10 × 10^−6 M remdesivir plus 10 × 10^−6 M astaxanthin) is on record as “reversed”. Also, in [6], the “effects on normal hCMs (viability, apoptosis, sarcomere organization)” value (“effects on normal hCMs” below) is given as “little effects”. Also, in the series with remdesivir-treated hCMs, the “protective effect against remdesivir compared with the other hits” value is on record as “most prominent protective effect” and the “remdesivir-induced cardiotoxicity (cell viability), protection” value (“remdesivir-induced cardiotoxicity” below) is “confirmed to reduce”. For the same compound, in [18], the “opening of mitochondrial permeability transition pore” value is “inhibit the opening”. For the same compound, the “cell apoptosis in hEHTs exposed to remdesivir” value in series [12] (setting [20]) is listed as “remarkably decreased”. The “frequency of abnormal beating caused by remdesivir” value in the series on hCMs [13] (10 × 10^−6 M remdesivir plus 10 × 10^−6 M astaxanthin, 6 days) is recorded as “relieved dramatically”. For the same compound, in the series on hCMs [17] (Asta 10 μM, Vc 50 μg/ml, Vb1 10 μg/ml, NAC 1 mM, GSH 25 μg/ml), the “could alter the level of ROS in hCMs when co-stimulated with remdesivir” value was “neither”.

Turning to `CON=C(C(=O)NC1C(=O)N2C(C(=O)O)=C(CSC(=O)c3ccco3)CSC12)c1csc(N)n1` (stereo not shown) [ceftiofur hydrochloride], the “effects on normal hCMs” value in series [6] was “little effects”. In addition, in the series on remdesivir-treated hCMs, the “remdesivir-induced cardiotoxicity” value is “confirmed to reduce”.

Consider `OCCOCCN1CCN(C2=Nc3ccccc3Sc3ccccc32)CC1` [quetiapine fumarate], for which, in [6], the “effects on normal hCMs” value is “little effects”. Moreover, the “remdesivir-induced cardiotoxicity” value in the series with remdesivir-treated hCMs is reported as “confirmed to reduce”.
